Data as given in PubChem BioAssay AID2060605 (Molecular Pharmacology Branch, DTP, NCI, 2025).
Several values for one entry are separate records, joined by “and”; a condition that tells them apart may be missing. Identical values can stand only once.

System: 947758-054-R-J2-PDC spheroid growth, percent test/control
Experiment: Anticancer human tumor 947758-054-R-J2-PDC patient-derived colon adenocarcinoma cell line growth inhibition [CLK]
Details: spheroids with HUVEC and MSC; for viability, T/C: stronger effect = lower value
Outline: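 Multi-cell-type spheroids combined patient-derived tumor cells with HUVEC endothelial cells and human mesenchymal stem cells. Paired agents were dosed in half-log steps down from about clinical Cmax, or from 10 microM where Cmax was unknown.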

[1] = curve of first compound, second compound 0.0316 µM
[2] = curve of first compound, second compound 0.1 µM
[3] = curve of first compound, second compound 0.316 µM
[4] = curve of first compound, second compound 1 µM
[5] = curve of first compound, second compound 3.16 µM
[6] = curve of first compound, second compound 10 µM
[7] = second compound 0.0316 µM, first compound 0.0316 µM
[8] = second compound 0.0316 µM, first compound 0.1 µM
[9] = second compound 0.0316 µM, first compound 0.316 µM
[10] = second compound 0.0316 µM, first compound 1 µM
[11] = second compound 0.1 µM, first compound 0.0316 µM
[12] = second compound 0.1 µM, first compound 0.1 µM
[13] = second compound 0.1 µM, first compound 0.316 µM
[14] = second compound 0.1 µM, first compound 1 µM
[15] = second compound 0.316 µM, first compound 0.0316 µM
[16] = second compound 0.316 µM, first compound 0.1 µM
[17] = second compound 0.316 µM, first compound 0.316 µM
[18] = second compound 0.316 µM, first compound 1 µM
[19] = second compound 1 µM, first compound 0.0316 µM
[20] = second compound 1 µM, first compound 0.1 µM
[21] = second compound 1 µM, first compound 0.316 µM
[22] = second compound 1 µM, first compound 1 µM
[23] = second compound 3.16 µM, first compound 0.0316 µM
[24] = second compound 3.16 µM, first compound 0.1 µM
[25] = second compound 3.16 µM, first compound 0.316 µM
[26] = second compound 3.16 µM, first compound 1 µM
[27] = second compound 10 µM, first compound 0.0316 µM
[28] = second compound 10 µM, first compound 0.1 µM
[29] = second compound 10 µM, first compound 0.316 µM
[30] = second compound 10 µM, first compound 1 µM
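Also: spheroids exposed to compounds for one week before readout.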
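For viability, T/C in this document: 100% = DMSO vehicle control wells.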

CCN1CCN(Cc2ccc(Nc3ncc(F)c(-c4cc(F)c5nc(C)n(C(C)C)c5c4)n3)nc2)CC1 + CN1CCN(c2cc(C(=O)Nc3cc4cc(-c5cnn(C)c5)ccc4cn3)ccn2)CC1
IC50 [1]: > 1000 nM | IC50 [2]: 461 nM | IC50 [3]: < 3.16 nM | IC50 [4]: < 3.16 nM | IC50 [5]: < 3.16 nM | IC50 [6]: < 3.16 nM | viability, T/C (second compound 0.0316 µM, first compound 0.00316 µM): 145% | viability, T/C (second compound 0.0316 µM, first compound 0.01 µM): 133% | viability, T/C [7]: 176% | viability, T/C [8]: 245% | viability, T/C [9]: 98.2% | viability, T/C [10]: 46.5% | viability, T/C (second compound 0.1 µM, first compound 0.00316 µM): 134% | viability, T/C (second compound 0.1 µM, first compound 0.01 µM): 141% | viability, T/C [11]: 105% | viability, T/C [12]: 108% | viability, T/C [13]: 52.7% | viability, T/C [14]: 32.8% | viability, T/C (second compound 0.316 µM, first compound 0.00316 µM): 4.74% | viability, T/C (second compound 0.316 µM, first compound 0.01 µM): 7.5% | viability, T/C [15]: 5.93% | viability, T/C [16]: 9.21% | viability, T/C [17]: 14.7% | viability, T/C [18]: 13.2% | viability, T/C (second compound 1 µM, first compound 0.00316 µM): 0.18% | viability, T/C (second compound 1 µM, first compound 0.01 µM): 2.83% | viability, T/C [19]: 0.19% | viability, T/C [20]: 0.19% | viability, T/C [21]: 0.18% | viability, T/C [22]: 2.66% | viability, T/C (second compound 3.16 µM, first compound 0.00316 µM): 0.83% | viability, T/C (second compound 3.16 µM, first compound 0.01 µM): 0.69% | viability, T/C [23]: 0.21% | viability, T/C [24]: 0.28% | viability, T/C [25]: 2.63% | viability, T/C [26]: 3.69% | viability, T/C (second compound 10 µM, first compound 0.00316 µM): 0.27% | viability, T/C (second compound 10 µM, first compound 0.01 µM): 1.7% | viability, T/C [27]: 0.31% | viability, T/C [28]: 0.4% | viability, T/C [29]: 0.75% | viability, T/C [30]: 2.67%

C=CC(=O)Nc1cc(Nc2nccc(-c3cn(C)c4ccccc34)n2)c(OC)cc1N(C)CCN(C)C
viability, T/C (compound 0.000949 µM): 85.6% and 108% | viability, T/C (compound 0.003 µM): 62.3% and 94.7% | viability, T/C (compound 0.00949 µM): 90.8% and 103% | viability, T/C (compound 0.03 µM): 94.7% and 69.1% | viability, T/C (compound 0.0949 µM): 74.3% and 92.2% | viability, T/C (compound 0.3 µM): 87.2% and 78.5% | IC50 (curve of compound): > 300 nM

CC1(C)CCC(CN2CCN(c3ccc(C(=O)NS(=O)(=O)c4ccc(NCC5CCOCC5)c([N+](=O)[O-])c4)c(Oc4cnc5[nH]ccc5c4)c3)CC2)=C(c2ccc(Cl)cc2)C1 + CNC(=O)c1ccc(Nc2nc(OC3CCCC3)c3c(-c4ccc5nc(C)oc5c4)c[nH]c3n2)c(OC)c1
IC50 [1]: 2890 nM | IC50 [2]: 3200 nM | IC50 [3]: 2440 nM | IC50 [4]: 2300 nM | IC50 [5]: 751 nM | IC50 [6]: 35.2 nM | viability, T/C [7]: 105% | viability, T/C [8]: 80.1% | viability, T/C [9]: 93.6% | viability, T/C [10]: 94.4% | viability, T/C (second compound 0.0316 µM, first compound 3.16 µM): 46.3% | viability, T/C (second compound 0.0316 µM, first compound 10 µM): 1.33% | viability, T/C [11]: 104% | viability, T/C [12]: 113% | viability, T/C [13]: 82.1% | viability, T/C [14]: 94% | viability, T/C (second compound 0.1 µM, first compound 3.16 µM): 47.8% | viability, T/C (second compound 0.1 µM, first compound 10 µM): 0.8% | viability, T/C [15]: 105% | viability, T/C [16]: 85.2% | viability, T/C [17]: 70.7% | viability, T/C [18]: 76.8% | viability, T/C (second compound 0.316 µM, first compound 3.16 µM): 46.9% | viability, T/C (second compound 0.316 µM, first compound 10 µM): 1.58% | viability, T/C [19]: 64.8% | viability, T/C [20]: 56.7% | viability, T/C [21]: 55.8% | viability, T/C [22]: 68.5% | viability, T/C (second compound 1 µM, first compound 3.16 µM): 45.8% | viability, T/C (second compound 1 µM, first compound 10 µM): 0.6% | viability, T/C [23]: 59.1% | viability, T/C [24]: 33.4% | viability, T/C [25]: 63.3% | viability, T/C [26]: 48.4% | viability, T/C (second compound 3.16 µM, first compound 3.16 µM): 26.5% | viability, T/C (second compound 3.16 µM, first compound 10 µM): 2.21% | viability, T/C [27]: 55% | viability, T/C [28]: 42.5% | viability, T/C [29]: 40.2% | viability, T/C [30]: 42.3% | viability, T/C (second compound 10 µM, first compound 3.16 µM): 16.3% | viability, T/C (second compound 10 µM, first compound 10 µM): 2.68%
